Laboratory results reported in patent US20250186491A1, “COMPOSITIONS AND METHODS FOR TREATING CANCER WITH CHIMERIC TIM RECEPTORS IN COMBINATION WITH INHIBITORS OF POLY (ADP-RIBOSE) POLYMERASE” (CERO THERAPEUTICS HOLDINGS, INC., priority 2020, published 2025).

Experiments:
Kuramochi cells = test system: Kuramochi cells
Experimental: FIG. 8A: Flow cytometry measurement of surface PtdSer. Kuramochi cells were treated with 1.56 or 25 μM Niraparib or with equivalent volume of DMSO (control). 48 hours later samples were trypsinized and stained using a Tim4-Fc followed by a fluorescently-labeled secondary anti body to the Tim4-Fc. FIG. 8B: Kuramochi cells pre-treated for ˜20 hours with 1.56 μM Niraparib were co-cultured with pCTX133 and Untransduced CD4 T cells from donor 32 at a 2:1 T cell:Kuramochi ratio and a final Niraparib concentration of 1.56 μM. […] All data were collected via IncuCyte.
(§1) Flow cytometry measurement of surface PS: A2780-mCh-NLS cells were treated with […] Niraparib or with equivalent volume of DMSO (control). 48 hours later samples were trypsinized and stained using a Tim4-Fc followed by a fluorescently-labeled secondary antibody to the Tim4-Fc. Samples were immediately analyzed via Flow cytometry.

A2780-mCh-NLS cells = details: FIG. 11A
Experimental: as §1

[1] = test system: Kuramochi ovarian cancer cells; assay: Kuramochi cell number under PARP inhibitors, tracked via imaging; type: cell-based, human; details: for elimination of the Kuramochi culture: by t=50 h; for EC50 values (ranking), number of Kuramochi cells: five PARP inhibitors compared
Experimental: Kuramochi ovarian cancer cells expressing an mCherry-NLS plasmid were incubated with 0.78 to 100 uM of the PARP inhibitor Niraparib. The number of Kuramochi cells/well was tracked via imaging.

NC(=O)c1cccc2cn(-c3ccc([C@@H]4CCCNC4)cc3)nc12 [Niraparib]
membrane phospholipid symmetry (Ptd-Ser exposure) (Kuramochi cells; BRCA-2 mutated Kuramochi, brief exposure, 1.56 or 25 μM, FIG. 8A): elicits changes in membrane phospholipid symmetry, in a dose dependent manner | growth of Kuramochi cells (Kuramochi cells; FIG. 8A): effective in inhibiting growth | Tim4-Fc MFI (Kuramochi cells; Kuramochi, 25 μM Niraparib vs DMSO, FIG. 11B): increase | concentration at which anti-tumor effect begins (Kuramochi cells; Kuramochi, FIG. 11B): at least 25 μM | Tim4-Fc MFI (A2780-mCh-NLS cells; 1.56 and 25 μM Niraparib vs DMSO): increase | concentration at which anti-tumor effect begins (A2780-mCh-NLS cells): at least 1.56 μM | number of Kuramochi cells in culture ([1]; Niraparib 0.78 to 100 uM, t=50, FIG. 1A): decreases monotonically with increasing Niraparib concentration | elimination of the Kuramochi culture ([1]; FIG. 1B): almost eliminate the Kuramochi culture | EC50 values (ranking), number of Kuramochi cells ([1]; t=50 h, FIG. 1B): most sensitive EC50 values

CNCc1ccc(-c2[nH]c3cc(F)cc4c3c2CCNC4=O)cc1 [Rucaparib]
elimination of the Kuramochi culture ([1]; FIG. 1B): almost eliminate the Kuramochi culture

Cn1ncnc1[C@H]1c2n[nH]c(=O)c3cc(F)cc(c23)N[C@@H]1c1ccc(F)cc1 [Talazoparib]
EC50 values (ranking), number of Kuramochi cells ([1]; t=50 h, FIG. 1B): most sensitive EC50 values

C[C@]1(c2nc3c(C(N)=O)cccc3[nH]2)CCCN1 [Veliparib]
impact on the number of detected Kuramochi cells ([1]; t=50 h, of the five PARP inhibitors tested, FIG. 1B): least impact
